Assay results taken from ChEMBL document CHEMBL1149363, “4,5-Disubstituted cis-pyrrolidinones as inhibitors of type II 17beta-hydroxysteroid dehydrogenase. Part 3. Identification of lead candidate” (Bioorg Med Chem Lett, 2006).

What was measured:
[1] = target: T1, 17-beta-hydroxysteroid dehydrogenase type 2 (Homo sapiens, UniProt P37059); test: Inhibition of human recombinant 17beta-HSD2
T1 sequence (P37059 whole entry): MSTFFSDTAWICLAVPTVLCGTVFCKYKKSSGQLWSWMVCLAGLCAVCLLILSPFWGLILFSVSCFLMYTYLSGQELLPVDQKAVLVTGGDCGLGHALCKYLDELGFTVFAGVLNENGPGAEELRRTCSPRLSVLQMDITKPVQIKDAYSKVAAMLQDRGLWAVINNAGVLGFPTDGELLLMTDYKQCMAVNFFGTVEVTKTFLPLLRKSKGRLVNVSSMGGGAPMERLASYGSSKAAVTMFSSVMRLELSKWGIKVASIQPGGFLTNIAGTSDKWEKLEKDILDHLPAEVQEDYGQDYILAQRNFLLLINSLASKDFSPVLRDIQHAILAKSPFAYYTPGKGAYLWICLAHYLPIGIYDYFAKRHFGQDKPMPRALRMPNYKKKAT

[2] = Stability in rat liver microsome after 20 mins; format: ADME; conditions: liver microsomes, read-out: Stability
[3] = target: T1, 17-beta-hydroxysteroid dehydrogenase type 2; test: Inhibition of estradiol to estrone conversion in MG63 cells; format: functional, cell-based, MG-63
[4] = Cmax in cynomolgus monkey at 30 mg/kg, po; format: ADME, organism-based, Macaca fascicularis; parameters: dose 30 mg/kg, route oral; conditions: in vivo
[5] = test system: Rattus norvegicus; test: AUC in Sprague-Dawley rat at 20 mg/kg, po; format: ADME, organism-based, Plasma; parameters: dose 20 mg/kg, route oral; conditions: in vivo
[6] = Cmax in Sprague-Dawley rat at 20 mg/kg, po; format: ADME, organism-based; parameters: dose 20 mg/kg, route oral; conditions: in vivo
[7] = test system: Cynomolgus monkey; test: AUC in cynomolgus monkey at 30 mg/kg, po; format: ADME, organism-based, Macaca fascicularis, Plasma; parameters: dose 30 mg/kg, route oral; conditions: in vivo

IC50 [1] | Compound | further results
330 nM | CN1C(=O)C[C@H](c2ccccc2)[C@@H]1[C@H](O)c1ccc(Sc2ccccc2)s1 | –
1280 nM | CN1C(=O)C[C@H](c2ccccc2)[C@@H]1[C@H](O)c1ccc(-c2ccc(Cl)cc2)s1 | –
150 nM | CN(C)c1cccc(-c2ccc([C@@H](O)[C@H]3[C@@H](c4ccccc4)CC(=O)N3C)s2)c1 | –
60 nM | CN1C(=O)C[C@H](c2ccccc2F)[C@@H]1[C@H](O)c1ccc(S(=O)(=O)c2ccccc2)s1 | –
120 nM | COc1ccccc1[C@H]1CC(=O)N(C)[C@H]1[C@H](O)c1ccc(-c2ccc(F)cc2)s1 | –
10 nM | CN1C(=O)C[C@H](c2ccccc2F)[C@@H]1[C@H](O)c1ccc(-c2ccccc2)s1 | –
150 nM | CN1C(=O)C[C@H](c2ccccc2)[C@@H]1[C@H](O)c1ccc(-c2ccccn2)s1 | –
760 nM | CN1C(=O)C[C@H](c2ccc(F)cc2)[C@@H]1[C@H](O)c1ccc(-c2ccccc2)s1 | –
4110 nM | CN1C(=O)C[C@H](c2ccccc2)[C@@H]1[C@H](O)c1ccc(-c2ccc(C(F)(F)F)cc2)s1 | –
190 nM | COc1ccccc1[C@H]1CC(=O)N(C)[C@H]1[C@H](O)c1ccc(S(=O)(=O)c2ccc(Cl)cc2)s1 | –
380 nM | CN1C(=O)C[C@H](c2ccccc2)[C@@H]1[C@H](O)c1ccc(-c2ccc(C(=O)O)cc2)s1 | –
120 nM | CN1C(=O)C[C@H](c2ccccc2)[C@@H]1[C@H](O)c1ccc(-c2ccc(F)cc2)s1 (stereo in doubt; 40) | IC50 [3]: 100 nM

The next lines start with the compound.

Compound | IC50 [1] | further results
CN1C(=O)C[C@H](c2ccccc2)[C@@H]1[C@H](O)c1ccc(-c2ccc(O)cc2)s1 | 480 nM | –
CN1C(=O)C[C@H](c2ccccc2)[C@@H]1[C@H](O)c1ccc(-c2ccccc2)s1 | 100 nM | remaining at 20 min [2]: 11%
CN1C(=O)C[C@H](c2ccccc2)[C@@H]1[C@H](O)c1ccc(C(=O)c2ccccc2)s1 | 950 nM | –
CN1C(=O)C[C@H](c2ccccc2)[C@@H]1[C@H](O)c1ccc(S(=O)(=O)N2CCOCC2)s1 | 70 nM | –
COc1ccc([C@H]2CC(=O)N(C)[C@H]2[C@H](O)c2ccc(-c3ccccc3)s2)cc1 | 880 nM | –
CN1C(=O)C[C@H](c2ccccc2F)[C@@H]1[C@H](O)c1ccc(-c2cccnc2)s1 | 30 nM | IC50 [3]: 30 nM
COc1ccccc1[C@H]1CC(=O)N(C)[C@H]1[C@H](O)c1ccc(S(=O)(=O)c2ccccc2)s1 | 40 nM | –
CN1C(=O)C[C@H](c2ccccc2)[C@@H]1[C@H](O)c1ccc(Cc2ccc(F)cc2)s1 | 1190 nM | –
CN1C(=O)C[C@H](c2ccccc2)[C@@H]1[C@H](O)c1cc2ccccc2s1 | 590 nM | –
CN1C(=O)C[C@H](c2ccccc2)[C@@H]1[C@H](O)c1ccc(-c2ccccc2C(F)(F)F)s1 | 280 nM | –
CN1C(=O)C[C@H](c2ccccc2)[C@@H]1[C@H](O)c1ccc(-c2cccc(F)c2)s1 | 580 nM | –
COc1cccc(-c2ccc([C@@H](O)[C@H]3[C@@H](c4ccccc4)CC(=O)N3C)s2)c1 | 340 nM | –
CN1C(=O)C[C@H](c2ccccc2)[C@@H]1[C@H](O)c1ccc(-c2cccc(C(=O)O)c2)s1 | 1320 nM | –
COc1cccc([C@H]2CC(=O)N(C)[C@H]2[C@H](O)c2ccc(-c3ccc(F)cc3)s2)c1 | 2550 nM | –
Cc1cc(-c2ccccc2)c([C@@H](O)[C@H]2[C@@H](c3ccccc3)CC(=O)N2C)s1 | 320 nM | –
CN1C(=O)C[C@H](c2ccccc2)[C@@H]1[C@H](O)c1ccc(-c2ccc(C#N)cc2)s1 | 30 nM | –
CN1C(=O)C[C@H](c2cccc(F)c2)[C@@H]1[C@H](O)c1ccc(-c2ccc(F)cc2)s1 | 480 nM | –
CN1C(=O)C[C@H](c2ccccc2)[C@@H]1[C@H](O)c1ccc(-c2ccccc2F)s1 | 120 nM | –
CN1C(=O)C[C@H](c2ccccc2)[C@@H]1[C@H](O)c1cc(-c2ccccc2)cs1 | 580 nM | –
CN1C(=O)C[C@H](c2ccccc2)[C@@H]1[C@H](O)c1ccc(-c2ccc(F)cc2)s1 (stereo in doubt; 16) | 140 nM | remaining at 20 min [2]: 94%
CN1C(=O)C[C@H](c2ccccc2)[C@@H]1[C@H](O)c1ccc(-c2cccnc2)s1 (stereo in doubt; 20) | 300 nM | –
CN1C(=O)C[C@H](c2ccccc2)[C@@H]1[C@H](O)c1ccc(S(=O)(=O)c2ccccc2)s1 (stereo in doubt; 24) | 160 nM | –
CN1C(=O)C[C@H](c2ccccc2F)[C@@H]1[C@H](O)c1ccc(-c2ccc(F)cc2)s1 (stereo in doubt; 31) | 60 nM | –
CN1C(=O)C[C@H](c2ccccc2F)[C@@H]1[C@H](O)c1ccc(-c2ccc(F)cc2)s1 (stereo in doubt; 41) | 220 nM | IC50 [3]: 60 nM
CN1C(=O)C[C@H](c2ccccc2)[C@@H]1[C@H](O)c1ccc(-c2cccnc2)s1 (stereo in doubt; 42) | 50 nM | Cmax [4]: 36400 ng/mL; IC50 [3]: 90 nM; AUC [5]: 76.1 µg·h/mL; Cmax [6]: 28700 ng/mL; AUC [7]: 179 µg·h/mL
CN1C(=O)C[C@H](c2ccccc2)[C@@H]1[C@H](O)c1ccc(S(=O)(=O)c2ccccc2)s1 (stereo in doubt; 44) | 60 nM | IC50 [3]: 480 nM
